Data set [1] in a line: Induction of disruption of actin stress fibers in PTM cells by actin stress fiber assay. Format: functional, cell-based, Sus scrofa. Particulars: ptm cell.
Data set [2] in a line: Induction of disruption of actin stress fibers in human TM1 cells by actin stress fiber assay. In kind it is functional, cell-based.
Another data set addresses Autotaxin (Homo sapiens, UniProt Q13822). As to the kind of experiment: Inhibition of ATX (unknown origin).
The nature of data set [3]: Half life in rabbit. Format: ADME, Oryctolagus cuniculus. Particulars: in vivo.
The species entered for the next data set is Mus musculus. Put plainly: Antiglaucoma activity in mouse eye assessed as increase in lymphatic drainage relative to control. In kind it is functional.
The target in data set [4] is Prostaglandin E2 receptor EP2 subtype (Homo sapiens, UniProt P43116). Put plainly: Binding affinity to EP2 (unknown origin) assessed as inhibition constant.
Another data set deals with Rhesus monkey. As to the kind of experiment: Antiglaucoma activity in ocular […] monkey assessed as reduction in intraocular pressure. Format: functional, organism-based. Particulars: Macaca mulatta.
Data set [5] is described as follows: Half life in human. In kind it is ADME.
The target in data set [6] is T1, Prostaglandin E2 receptor EP3 subtype (Homo sapiens, UniProt P43115).
T1 sequence (P43115 whole entry): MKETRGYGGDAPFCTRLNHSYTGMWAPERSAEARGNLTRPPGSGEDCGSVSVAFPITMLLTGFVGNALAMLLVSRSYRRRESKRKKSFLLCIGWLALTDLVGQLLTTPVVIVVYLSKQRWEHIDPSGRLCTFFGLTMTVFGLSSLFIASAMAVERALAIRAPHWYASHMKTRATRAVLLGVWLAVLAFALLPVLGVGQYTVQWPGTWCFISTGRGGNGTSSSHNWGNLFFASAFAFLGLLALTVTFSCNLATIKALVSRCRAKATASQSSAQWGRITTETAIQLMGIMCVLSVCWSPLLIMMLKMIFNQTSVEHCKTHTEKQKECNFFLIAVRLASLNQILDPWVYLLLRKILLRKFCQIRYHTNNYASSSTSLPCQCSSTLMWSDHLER
Put plainly: Agonist activity at EP3 (unknown origin).

For data set [7], the target named is Prostaglandin F2-alpha receptor (Homo sapiens, UniProt P43088). As to the kind of experiment: Agonist activity at FP receptor (unknown origin).

pEC50, pIC50, pKi: −log10 of the molar value. Several values for one entry are separate records, joined by “and”; a condition that tells them apart may be missing. Equal entries are not always repeated.

Chain of Prostaglandin F2-alpha receptor (P43088 whole entry): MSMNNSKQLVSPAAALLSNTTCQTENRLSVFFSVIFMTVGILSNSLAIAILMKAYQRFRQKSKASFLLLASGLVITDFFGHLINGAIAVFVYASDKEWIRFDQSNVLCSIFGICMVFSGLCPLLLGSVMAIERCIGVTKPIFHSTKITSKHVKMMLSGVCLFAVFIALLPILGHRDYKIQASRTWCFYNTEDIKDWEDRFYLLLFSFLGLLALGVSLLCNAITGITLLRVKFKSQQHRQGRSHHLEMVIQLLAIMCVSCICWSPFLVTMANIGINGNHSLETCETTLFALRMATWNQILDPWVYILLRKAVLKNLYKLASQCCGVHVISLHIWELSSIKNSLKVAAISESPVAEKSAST
Chain of Prostaglandin E2 receptor EP2 subtype (P43116 whole entry): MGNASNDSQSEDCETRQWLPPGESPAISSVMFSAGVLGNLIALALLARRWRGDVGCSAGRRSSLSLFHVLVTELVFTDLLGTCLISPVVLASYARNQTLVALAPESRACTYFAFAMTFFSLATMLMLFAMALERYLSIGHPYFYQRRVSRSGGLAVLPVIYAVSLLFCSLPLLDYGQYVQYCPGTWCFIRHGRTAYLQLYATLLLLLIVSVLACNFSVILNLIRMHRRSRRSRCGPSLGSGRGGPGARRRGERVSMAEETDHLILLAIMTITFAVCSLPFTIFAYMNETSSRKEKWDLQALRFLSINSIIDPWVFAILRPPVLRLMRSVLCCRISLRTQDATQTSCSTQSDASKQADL

What is called pIC50 is the IC50 on a negative log10 scale, so that one unit is a factor of ten. On to `Cc1ccc(C(=O)OCc2ccc([C@@H](CN)C(=O)Nc3ccc4cnccc4c3)cc2)c(C)c1`, for which the pIC50 in [1] is 7.10; in data set [2], 7.80.

On to `NC[C@@H](C(=O)Nc1ccc2cnccc2c1)c1ccc(CO)cc1`, for which the pIC50 in data set [1] is 7.66 and 8.52. Molecule `CCCCCn1c(N2CCC[C@H](C(=O)O)C2)cc(=O)n2cc(-c3ccc(Cl)cc3)nc12` gave a pIC50 against Autotaxin of 6.96.

In general, half-life refers to the time in which the quantity being followed falls by half. Regarding `O=C(CCC/C=C\C[C@@H]1[C@@H](CC[C@@H](O)CCc2ccccc2)[C@H](O)C[C@@H]1O)OCCCCO[N+](=O)[O-]` [LATANOPROSTENE BUNOD], the half-life in data set [3] is 1.8 h.

For the molecule `CC(C)OC(=O)CCC/C=C\C[C@@H]1[C@@H](CC[C@@H](O)CCc2ccccc2)[C@H](O)C[C@@H]1O` [LATANOPROST], the Activity in the data set listed under Mus musculus amounted to 400%.

In general, pKi refers to the negative decadic logarithm of the Ki, by convention in mol/L. In general, pEC50 refers to the EC50 on a negative log10 scale, so that one unit is a factor of ten. Take `O=C(O)CNc1cccc(CN(Cc2ccc(-n3cccn3)cc2)S(=O)(=O)c2cccnc2)n1` [OMIDENEPAG]: the pKi in data set [4] was 8.44. The pEC50 in the data set on Rhesus monkey was 8.08. This molecule also had a half-life in data set [5] of 0.5 h. `O=C(O)CCC[C@H]1CC[C@@H]2[C@@H](/C=C/[C@@H](O)COc3cc(F)ccc3F)[C@H](O)C[C@@H]2OC1` [ONO-AG-367]: the values for the pEC50 in [6] and in data set [7] were 7.54 and 7.65, respectively.

With `CC(C)OC(=O)CCC[C@H]1CC[C@@H]2[C@@H](/C=C/[C@@H](O)COc3cc(F)ccc3F)[C@H](O)C[C@@H]2OC1` [SEPETAPROST], the figures for the pEC50 in data set [6] and in [7] were 8.00 and 5.52, respectively.

For the origin of these results see ChEMBL document CHEMBL5241102, “Drugs for the treatment of glaucoma: Targets, structure-activity relationships and clinical research” (Eur J Med Chem, 2021).
